# According to US20080255186A1, “Pyrazolo[3,4-B]Pyridine Compound, and Its Use as a Pde4 Inhibitor” (priority 2005, published 2008):
# Target: T1, PDE6 (from bovine retina) (Bos taurus, UniProt P11541+P23439)
# T1 construct: PDE6 can be purified from bovine retina; from tissue; host or cells: bovine retina
# T1 sequence (P11541 2-856 limits assumed): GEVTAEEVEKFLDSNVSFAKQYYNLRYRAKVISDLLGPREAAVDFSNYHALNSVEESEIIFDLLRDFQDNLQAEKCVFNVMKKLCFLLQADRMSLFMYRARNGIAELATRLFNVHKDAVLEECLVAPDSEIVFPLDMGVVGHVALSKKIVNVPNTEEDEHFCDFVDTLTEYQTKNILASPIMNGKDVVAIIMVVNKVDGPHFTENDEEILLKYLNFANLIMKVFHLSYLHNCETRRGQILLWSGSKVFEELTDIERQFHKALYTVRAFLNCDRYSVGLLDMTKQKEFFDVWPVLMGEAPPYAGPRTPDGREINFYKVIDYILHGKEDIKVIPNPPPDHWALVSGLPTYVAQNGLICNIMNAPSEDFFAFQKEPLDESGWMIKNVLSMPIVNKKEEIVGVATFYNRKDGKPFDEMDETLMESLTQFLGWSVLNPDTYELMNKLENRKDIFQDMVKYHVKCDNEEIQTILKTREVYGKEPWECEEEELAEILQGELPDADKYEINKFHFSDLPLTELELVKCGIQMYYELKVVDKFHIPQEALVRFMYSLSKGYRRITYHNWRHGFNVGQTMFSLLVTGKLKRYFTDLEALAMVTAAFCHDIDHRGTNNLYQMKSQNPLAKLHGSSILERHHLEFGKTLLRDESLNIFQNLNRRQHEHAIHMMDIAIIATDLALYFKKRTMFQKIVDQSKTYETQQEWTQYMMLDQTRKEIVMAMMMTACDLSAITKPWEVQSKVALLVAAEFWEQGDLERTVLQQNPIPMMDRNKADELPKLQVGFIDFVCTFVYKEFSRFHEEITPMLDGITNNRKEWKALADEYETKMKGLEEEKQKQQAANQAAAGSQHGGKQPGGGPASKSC
# T1 sequence (P23439 2-850 limits assumed): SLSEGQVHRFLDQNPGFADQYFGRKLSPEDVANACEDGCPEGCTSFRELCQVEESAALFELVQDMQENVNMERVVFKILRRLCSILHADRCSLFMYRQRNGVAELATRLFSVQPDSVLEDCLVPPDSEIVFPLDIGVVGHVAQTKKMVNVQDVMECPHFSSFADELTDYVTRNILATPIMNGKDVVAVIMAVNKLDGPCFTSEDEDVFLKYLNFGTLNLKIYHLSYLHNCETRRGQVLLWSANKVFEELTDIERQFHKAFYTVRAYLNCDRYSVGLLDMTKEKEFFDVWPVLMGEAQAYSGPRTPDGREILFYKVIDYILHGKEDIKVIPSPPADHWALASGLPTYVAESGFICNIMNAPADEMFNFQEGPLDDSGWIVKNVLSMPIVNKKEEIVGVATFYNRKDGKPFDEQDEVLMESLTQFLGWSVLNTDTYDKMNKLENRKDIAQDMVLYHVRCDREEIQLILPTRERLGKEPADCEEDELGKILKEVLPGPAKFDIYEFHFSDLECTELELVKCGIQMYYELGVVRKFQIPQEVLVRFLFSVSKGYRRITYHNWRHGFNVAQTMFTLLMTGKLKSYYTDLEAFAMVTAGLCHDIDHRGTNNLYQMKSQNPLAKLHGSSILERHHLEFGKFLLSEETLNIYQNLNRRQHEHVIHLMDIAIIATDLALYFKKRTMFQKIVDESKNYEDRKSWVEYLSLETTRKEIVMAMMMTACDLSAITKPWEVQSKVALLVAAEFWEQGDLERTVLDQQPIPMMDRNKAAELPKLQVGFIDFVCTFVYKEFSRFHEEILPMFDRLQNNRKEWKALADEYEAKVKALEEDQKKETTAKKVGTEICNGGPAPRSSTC
# Experiment: PDE6 inhibition (FP or SPA general type of assay)
# Type: biochemical
# Settings: in the particular assays used
# Description: PDE6 can be purified from bovine retina as described by: P. Catty and P. Deterre, “Activation and solubilization of the retinal cGMP-specific phosphodiesterase by limited proteolysis”, Eur. J. Biochem., 1991, 199, 263-269; A. Tar et al. “Purification of bovine retinal cGMP phosphodiesterase”, Methods in Enzymology, 1994, 238, 3-12; and/or D. Srivastava et al. “Effects of magnesium on cyclic GMP hydrolysis by the bovine retinal rod cyclic GMP phosphodiesterase”, Biochem. J., 1995, 308, 653-658.
# The ability of compounds to inhibit catalytic activity at PDE4B or 4D (human recombinant), PDE3 (from bovine aorta), PDE5 (human recombinant) or PDE6 (from bovine retina) can optionally be determined by Scintillation Proximity Assay (SPA) in a 96-well format.
# Test compounds (as a solution in DMSO, suitably about 2 microlitre (ul) volume of DMSO solution) are preincubated at ambient temperature (room temperature, e.g. 19-23° C.) in Wallac Isoplates (code 1450-514) with PDE enzyme in 50 mM Tris-HCl buffer pH 7.5, 8.3 mM MgCl2, 1.7 mM EGTA, 0.05% (w/v) bovine serum albumin for 10-30 minutes (usually 30 minutes). […] Bound radioactive product is measured using a WALLAC TRILUX 1450 Microbeta scintillation counter. […] Curves are analysed using ActivityBase and XLfit (ID Business Solutions Limited, 2 Ocean Court, Surrey Research Park, Guildford, Surrey GU2 7QB, United Kingdom). […]
structure (smiles),measurement,value
"CCc1nc2c(cnn2CC)c(NC2CCOCC2)c1CNC(=O)c1cc(C)no1 [Example 1, N-{[1,6-diethyl-4-(tetrahydro-2H-pyran-4-ylamino)-1H-pyrazolo[3,4-b]pyridin-5-yl]methyl}-3-methyl-5-isoxazolecarboxamide]",PDE4B pIC50 compared with PDE6 pIC50 (selectivity),"inhibits PDE4B more strongly than it inhibits PDE3, PDE5 and PDE6"
